This passage reports LD50 and Ki results from patent US20120053318A1, “METHOD OF RADIOLABELING” (CENTRE FOR PROBE DEVELOPMENT AND COMMERCIALIZATION, priority 2010, published 2012).

For series [1] the following is noted: oils selected based on biocompatibility; cited from earlier work.
The target of series [2] is urokinase plasminogen activator receptor (uPAR) (Homo sapiens, UniProt Q03405). The experiment in a line: binding affinity of Re complexes of the peptides for uPAR. Conditions: isostructural to the Tc analogues.
urokinase plasminogen activator receptor (uPAR), sequence (Q03405 23-305): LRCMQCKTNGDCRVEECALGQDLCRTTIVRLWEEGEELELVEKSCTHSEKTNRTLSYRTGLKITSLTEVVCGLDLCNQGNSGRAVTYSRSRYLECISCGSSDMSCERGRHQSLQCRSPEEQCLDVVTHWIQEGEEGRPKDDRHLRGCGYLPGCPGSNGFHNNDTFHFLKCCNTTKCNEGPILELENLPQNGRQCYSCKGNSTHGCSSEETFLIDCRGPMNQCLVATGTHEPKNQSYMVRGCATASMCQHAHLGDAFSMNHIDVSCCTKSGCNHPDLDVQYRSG

As to `CC(C)CC(C)(C)C` [isooctane], the LD50 entry in series [1] is given as “greater than 2000 mg/kg”.
As for SAACII-S-G-S-G-D-Cha-F-s-r-Y-L-W-S [L1], the inhibition constant (Ki) in series [2] worked out at 1.37 ± 0.83 nM.
On the same count and under the same terms, the result for D-Cha-F-s-r-Y-L-W-S-SAACII [L2] reads 0.39 ± 0.1 nM.
